Blank lines part the entries; values can stand above or below the molecule they belong to.
Experiments:
hepG2 cells [1] = assay: Removal of added AA from DMEM medium by hepG2 cells (SIFT-MS headspace); type: in vitro ADME, human; conditions: 20 million hepG2 cells; for headspace AA concentration after incubation with cells: 16 hours
Method: (§1) The inhibitor solutions were then added to volumes of medium so that the final DMSO concentration was always 0.1% v/v (or ˜14 500 μM). In some experiments, inhibitors were added to hMSCs during routine culture, some 24 hours prior to proceeding to the next phase of the analysis, but this pre-treatment was not employed in the hepG2 experiments. […] The importance of precursor ions in the analysis is explained further in the SIFT-MS section below. The method used for the preparation of cell cultures for SIFTMS headspace analysis was adapted from the previous studies published in 2003 (ref. 21) and 2009 (ref. 22). On the evening prior to the analysis, the cells were removed from the tissue culture flasks using trypsin, counted using a haemocytometer, and suspended in fresh DMEM media containing the ALDH inhibitor where appropriate, inside 150 mL glass bottles. […] The headspace of each bottle was purged with dry cylinder air before the bottles were finally sealed with metal caps, which incorporate rubber septa, and placed inside an incubator to be held at 37° C. for around 16 hours/overnight.
The methodology of SIFT-MS analyses for the sampling and quantification of compounds in the headspace of liquid samples has been described in detail previously (Refs 21,22,27-32). […] The product ions and the precursor ions are then analysed by a quadrupole mass spectrometer/detection system. Throughout the present study the instrument was operated in the multiple ion monitoring (MIM) mode, during which the desired precursor ion and its hydrates (Ref 33) and the characteristic product ions, are continuously monitored. This system, in combination with the previously compiled kinetics data for the reactions between the precursor ions and neutral molecules (Refs 34,35 rapidly allows the simultaneous absolute quantification of the concentrations of several selected volatile compounds of interest. The simultaneous detection and analysis of AA and DMS in a mixture presents a peculiar problem to SIFT-MS because of the overlap of characteristic product ions on which the analysis depends. However, the ion chemistry involved has been studied in detail and the kinetics database entries required for the accurate analyses of these two compounds by SIFT-MS have been constructed by following the guidelines given by previous studies (refs 34,35). In brief, AA was analysed using H3O^+ precursor ions and the unique protonated AA characteristic product ion at m/z 45, as described in detail in a recent paper (Ref 36). […]
Removal of AA from DMEM medium by cellular action. […] Identical medium samples without cells were also analysed (as described above) to obtain the starting (background) headspace AA concentration. […]

ALDH [2] = assay: SIFT-MS headspace acetaldehyde (AA) in hepG2 cultures with ALDH inhibitors; type: cell-based, human
Method: (§2) Human mesenchymal stem cells, hMSCs, are a primary cell type, and were isolated from a bone marrow aspirate sample (person; Lonza, US) using the plastic-adherence methodology and the hepG2 cells are of a human hepatocellular carcinoma cell line (Eton Bioscience, US), a cell line commonly used for the study of liver function. In both cases, the cells were cultured to confluence in Dulbecco's modified Eagle's medium (DMEM; Lonza, UK), supplemented with 10% v/v foetal bovine serum (FBS; Lonza, UK), 50 U mL^−1 penicillin-streptomycin (Lonza, UK) and 2 mM L-glutamine (Lonza, UK). The hMSCs additionally contained 1% v/v non-essential amino acids. The hMSCs were not cultured beyond passage number 4, whereas the well-differentiated hepG2 cells were analysed before passage number 20.
The inhibitor solutions were then added to volumes of medium so that the final DMSO concentration was always 0.1% v/v (or ˜14 500 μM). In some experiments, inhibitors were added to hMSCs during routine culture, some 24 hours prior to proceeding to the next phase of the analysis, but this pre-treatment was not employed in the hepG2 experiments. […] On the evening prior to the analysis, the cells were removed from the tissue culture flasks using trypsin, counted using a haemocytometer, and suspended in fresh DMEM media containing the ALDH inhibitor where appropriate, inside 150 mL glass bottles. […]
(§3) The methodology of SIFT-MS analyses for the sampling and quantification of compounds in the headspace of liquid samples has been described in detail previously (Refs 21,22,27-32). […] The product ions and the precursor ions are then analysed by a quadrupole mass spectrometer/detection system. Throughout the present study the instrument was operated in the multiple ion monitoring (MIM) mode, during which the desired precursor ion and its hydrates (Ref 33) and the characteristic product ions, are continuously monitored. […] In brief, AA was analysed using H3O^+ precursor ions and the unique protonated AA characteristic product ion at m/z 45, as described in detail in a recent paper (Ref 36). […]

hepG2 cells [3] = assay: SIFT-MS headspace DMS in hepG2 cultures (DMSO reduction to DMS); type: cell-based, human
Method: as §2, §1, §3

ALDH [4] = assay: SIFT-MS headspace AA in hMSC cultures with ALDH inhibitors; type: cell-based, human; conditions: approximately 5(10^6) hMSCs, 24 hours pre-treatment plus 16 hours sealed incubation
Method: as §2
(§4) The inhibitor solutions were then added to volumes of medium so that the final DMSO concentration was always 0.1% v/v (or ˜14 500 μM). […] On the evening prior to the analysis, the cells were removed from the tissue culture flasks using trypsin, counted using a haemocytometer, and suspended in fresh DMEM media containing the ALDH inhibitor where appropriate, inside 150 mL glass bottles. […]
(§5) The methodology of SIFT-MS analyses for the sampling and quantification of compounds in the headspace of liquid samples has been described in detail previously (Refs 21,22,27-32). […]

hMSCs = assay: SIFT-MS headspace DMS in hMSC cultures (DMSO reduction to DMS); type: cell-based, human; conditions: approximately 5(10^6) hMSCs, 24 hours pre-treatment plus 16 hours sealed incubation, 0.1% v/v DMSO
Method: as §2, §4, §5

hepG2 cells [5] = assay: Live-dead staining viability after sealed bottle incubation; type: cell-based, human; conditions: 1.5(10^7) hepG2 cells sealed 16 hours; 200 μM DEAB or 20 μM DSF
Method: In order to assess any changes in the viability of hepG2 cells due to the method of analysis, which requires the cells to be sealed inside a glass bottle for around 16 hours, cells were cultured to near-confluence using the untreated medium described earlier, and observed using a live-dead staining (Sigma, UK), and confocal microscopy. […] The cell-suspensions were then sealed inside 150 mL glass bottles and incubated at 37° C. for 16 hours. The suspensions were then removed from the bottles and assessed by the same live-dead staining.

[6] = tested on: Caco2/TC7 colon tumour cell cultures; conditions: cited from earlier work
[7] = 200 μM DEAB, about 1(10^7) hepG2 cells, 16 hours

reduction of headspace AA concentration by cells (hepG2 cells [1]; 50 mL DMEM, 16 hours at 37° C.): approximately 90%
headspace AA concentration after incubation with cells (hepG2 cells [1]; starting 59 ppbv): 20 ppbv
headspace AA concentration after incubation with cells (hepG2 cells [1]; starting 396 ppbv): 48 ppbv
headspace AA concentration after incubation with cells (hepG2 cells [1]; starting 990 ppbv): 118 ppbv
Compound: CC=O [AA, acetaldehyde]

Compound: CCN(CC)c1ccc(C=O)cc1 [DEAB]
peak AA concentration in the liquid phase (ALDH [2]; [7]): 4 µM
peak headspace AA concentration (ALDH [2]; [7]): around 600 ppbv
headspace AA concentration with increasing DEAB concentration (ALDH [2]; 1.5(10^7) hepG2 cells, 16 hours at 37° C., DEAB in 0.1% v/v DMSO): general increase in the AA concentration
decline in headspace DMS (hepG2 cells [3]; 0 to 25 μM DEAB, 1.5(10^7) hepG2 cells, 0.1% v/v DMSO): 30%
DMS production (hepG2 cells [3]; 200 μM DEAB, 1(10^4) to 5(10^6) hepG2 cells, 0.1% v/v DMSO): clearly reduced
decline of slope of DMS concentration versus cell number (hepG2 cells [3]; 200 μM DEAB, 5(10^6) up to 3(10^7) hepG2 cells, 0.1% v/v DMSO): about 30%
effect on ALDH / ability of hMSCs to metabolise AA (ALDH [4]): effective inhibitor of ALDH
effect on DMS production from DMSO (hMSCs): effective at preventing DMS production from DMSO
viability by live-dead staining (hepG2 cells [5]): little or no decline in the viability

Compound: C[S+](C)[O-] [DMSO, dimethyl sulphoxide]
liquid phase DMS concentration formed from DMSO (hepG2 cells [3]; 0.1% v/v DMSO in medium, overnight incubation, by Henry's Law): > 300 nM
DMSO concentration causing no observable cytotoxicity [6]: up to 10 % (v/v)

From patent publication US20160011174A1, “Assay for Determining the Cell Number in Cultured Cells” (KEELE UNIVERSITY, priority 2013, published 2016)
